Here are results for one compound from patent publication US6821988B2, “3-cyanoquinolines as inhibitors of EGF-R and HER2 kinases” (Wyeth Holdings Corporation, priority 2001, dated 2004).

Experiment [1] deals with BT474 (breast carcinoma). Put plainly: Inhibition of cancer cell growth, sulforhodamine B assay, BT474. In kind it is cell-based. The following applies: Homo sapiens, BT-474, 48 h; BT474, 2 days; read-out: Inhibition of Cancer Cell Growth in vitro IC50, BT474. The method, then: (§1) […], A431 (epidermoid carcinoma), SKBR3 (breast carcinoma), SW620 (colon carcinoma), and MDA-MB435 (breast carcinoma), BT474 (breast carcinoma), and two murine lines, 3T3 (murine fiboblasts) and HER2-3T3 (murine fiboblasts transfected with human HER2) were used for cell proliferation assays. Cells were maintained in RPMI -1640 medium supplemented with 5% fetal bovine serum. Cells were plated in 96-well plates at the densities of 2.5×10^4/ml for 3T3 and 3T3/HER2 and 5.0×10^4/ml for the rest of the cell lines. On the next day, compounds were dosed at 0.5, 5, 50, 500, and 5000 ng/ml and cultured for 2 days. At the end of incubation, cell survival was determined by the sulforhodamine B assay as previously described (Skehan, P; Stornet, R.; Scudiero, D.; Monks, A.; McMahon, J.; Vistica D., Warren, J.; Bokbosch, H.; Kenny, S.; Boyd, M. New Colorimetric Cytotoxic Assay for Anticancer-Drug Screening. J. Natl. Cancer Inst. 1990, 82, 1107-1112). The IC50 values (the concentration needed to inhibit cell growth by 50%) were obtained from the growth curves and are shown below in Table 2 where the results of multiple determinations are included.

The target in experiment [2] is T1, human HER2 cytoplasmic domain (HER2-CD, amino acid 676-1255) (Homo sapiens, UniProt P04626).
T1 construct: human HER2 cytoplasmic domain (HER2-CD, amino acid 676-1255); made in house; host or cells: Sf-9 insect cells, baculovirus (pBlueBacHis2B)
The experiment in a line: Inhibition of HER2 kinase autophosphorylation, recombinant enzyme, DELFIA/time-resolved fluorometry. In kind it is biochemical. The method, then: (§2) A 1.7 kb cDNA encoding human HER2 cytoplasmic domain (HER2-CD, amino acid 676-1255) and 1.6 kb cDNA for EGFR cytoplasmic domain (EGFR-CD, amino acid 645-1186) were cloned into baculoviral expression vectors, pBlueBacHis2B (Invitrogen) and pFASTBacHTc (GIBCO), separately. A sequence encoding (His)6 is located at the 5′ end upstream to HER2 and EGFR sequences. Sf-9 cells were infected at moi=10 for 3 days for protein expression. Sf-9 cell pellets were solubilized on ice in buffer containing 50 mM HEPES, pH 7.4, 10 mM NaCl, 1% Triton, 10 μM ammonium molybdate, 100 μM sodium vanadate, 10 μg/ml aprotinin, 10 μg/ml leupeptin, 10 μg/ml pepstatin, and 16 ug/ml benzamidine HCl for 20 min followed by 20 min centrifugation. Crude extract supernatant was passed through equilibrated Ni-NTA superflow packed column (Qiagen, Valencia, Calif.) and wash with 10 mM, and 100 mM imidazole to remove unspecific binding. Histidine-tagged proteins were eluted with 250 mM and 500 mM imidazole and dialyzed against 50 mM NaCl, 20 mM HEPES, 10% glycerol and 1 μg/ml each of aprotinin, leupeptin and pepstatin for 2 h. All the purification procedure was performed at 4° C. or on ice. Purified materials were subjected for electrophoresis followed by Coommassie blue stain to determine the purity of the preparation and Western blot for the identity of protein. Enzymes were aliquoted and stored at −80° C.
(§3) Inhibition of EGFR and HER2 kinase autophosphorylation was measured by a DELFIA/time-resolved fluorometry assay. Compounds were dissolved in 100% DMSO and diluted to the appropriate concentrations with 25 mM HEPES, pH 7.4. In each well, 10 μl of compound was incubated with 10 μl of recombinant EGF-R or HER2 enzyme (1:80 dilution in 100 mM HEPES) for 10 min at room temperature. Then, 10 μl of 5×buffer (containing 20 mM HEPES, 2 mM MnCl2, 100 uM Na3VO4 and 1 mM DTT) and 20 μl of 0.1 mM ATP/50 mM MgCl2 was added for 1 h. Positive and negative controls were included in each plate by incubation of enzyme with or without ATP/MgCl2. At the end of incubation, liquid was aspirated and washed three times with wash buffer. 75 μl (400 ng).of europium-labeled anti-phosphotyrosine antibody was added to each well for another hour of incubation. After wash, enhancement solution was added and the signal was detected by Victor (Wallac Inc) with excitation at the wavelength of 340 nm and emission at the wavelength of 615 nm. All reagents were supplied by Wallac Inc (Wallac/Perkin-Elimer). Percentage of autophosphorylation inhibition by compound was calculated by […]. IC50 values were obtained from curves of percentage inhibition with 8 doses of compound.

The target of experiment [3] is T2, EGFR cytoplasmic domain (EGFR-CD, amino acid 645-1186) (Homo sapiens, UniProt P00533).
T2 construct: EGFR cytoplasmic domain (EGFR-CD, amino acid 645-1186); made in house; host or cells: Sf-9 insect cells, baculovirus (pFASTBacHTc)
Put plainly: Inhibition of EGF-R kinase autophosphorylation, recombinant enzyme, DELFIA/time-resolved fluorometry. The experiment is classed as biochemical. As for the experimental part: as §2, §3

Experiment [4] has as its system HER2-3T3 (murine fiboblasts transfected with human HER2). Put plainly: Inhibition of cell growth, sulforhodamine B assay, HER2-3T3. The experiment is classed as cell-based. The note with it: HER2-3T3, 2 days. The method, then: as §1
(In general: In SRB staining, fixed cells bind dye roughly in proportion to their protein.)

Experiment [5] has as its system A431 (epidermoid carcinoma). The experiment in a line: Inhibition of cancer cell growth, sulforhodamine B assay, A431. In kind it is cell-based, human. The note with it: A431, 2 days. The method, then: as §1
The subject of experiment [6] is 3T3 (murine fiboblasts). The experiment in a line: Inhibition of cell growth, sulforhodamine B assay, 3T3. The experiment is classed as cell-based. The note with it: 3T3, 2 days. As for the experimental part:
as §1

Values after ≈ are worked out from the molar mass of the structure shown. Values joined by “and” are separate entries in the source; they are usually repeats but may differ in a detail not shown here. Equal values may be shown once.

T1 sequence (P04626 676-1255): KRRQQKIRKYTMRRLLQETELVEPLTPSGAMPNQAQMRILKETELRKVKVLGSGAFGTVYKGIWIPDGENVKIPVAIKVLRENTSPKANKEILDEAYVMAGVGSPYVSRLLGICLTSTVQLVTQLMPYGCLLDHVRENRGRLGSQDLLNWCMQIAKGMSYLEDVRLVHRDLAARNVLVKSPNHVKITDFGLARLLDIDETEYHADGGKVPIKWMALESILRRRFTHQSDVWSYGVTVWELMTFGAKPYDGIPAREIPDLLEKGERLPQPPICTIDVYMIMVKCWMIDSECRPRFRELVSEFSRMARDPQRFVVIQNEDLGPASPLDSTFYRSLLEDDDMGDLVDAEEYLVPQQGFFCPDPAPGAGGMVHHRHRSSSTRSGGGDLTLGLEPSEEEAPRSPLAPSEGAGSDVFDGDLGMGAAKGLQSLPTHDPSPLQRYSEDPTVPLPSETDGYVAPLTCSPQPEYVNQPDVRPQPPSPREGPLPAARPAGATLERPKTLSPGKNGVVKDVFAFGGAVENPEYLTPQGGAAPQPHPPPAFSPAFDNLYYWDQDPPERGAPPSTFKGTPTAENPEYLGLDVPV
T2 sequence (P00533 669-1210): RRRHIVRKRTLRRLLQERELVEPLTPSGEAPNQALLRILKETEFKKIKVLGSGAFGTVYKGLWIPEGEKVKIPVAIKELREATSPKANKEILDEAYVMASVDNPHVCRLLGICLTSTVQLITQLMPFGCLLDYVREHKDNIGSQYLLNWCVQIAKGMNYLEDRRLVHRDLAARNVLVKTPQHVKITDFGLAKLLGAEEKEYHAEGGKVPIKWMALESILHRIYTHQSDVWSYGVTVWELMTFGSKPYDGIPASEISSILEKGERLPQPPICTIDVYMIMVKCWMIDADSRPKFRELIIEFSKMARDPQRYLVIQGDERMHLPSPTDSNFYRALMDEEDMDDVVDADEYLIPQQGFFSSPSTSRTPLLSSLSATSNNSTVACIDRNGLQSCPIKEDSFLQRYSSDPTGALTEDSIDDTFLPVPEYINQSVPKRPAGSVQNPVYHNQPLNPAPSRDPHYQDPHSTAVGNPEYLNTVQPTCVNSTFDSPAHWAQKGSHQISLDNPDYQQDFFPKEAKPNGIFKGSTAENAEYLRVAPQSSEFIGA

`COc1cc2ncc(C#N)c(Nc3ccc(Sc4nc(-c5ccccc5)cs4)c(Cl)c3)c2cc1NC(=O)CC(CN(C)C)N(C)C` (stereo not shown) [Example 1]: the half-inhibitory concentration (IC50) in experiment [1] is 0.02 µg/mL (≈ 0.0297 µM); in experiment [2] (recombinant HER2 autophosphorylation) it was 1320 nM and 787 nM; in experiment [3] it was 4760 nM; in experiment [4] (Mus musculus, 48 h, read-out: Inhibition of Cancer Cell Growth in vitro IC50, HER2-3T3), 0.041 µg/mL (≈ 0.061 µM); in experiment [5] (Homo sapiens, A-431, 48 h, read-out: Inhibition of Cancer Cell Growth in vitro IC50, A431), 0.242 µg/mL (≈ 0.36 µM); in experiment [6] (Mus musculus, 48 h, read-out: Inhibition of Cancer Cell Growth in vitro IC50, 3T3) it was 0.76 µg/mL (≈ 1.13 µM). In addition, the inhibition at 2 µg/mL in experiment [2] (read-out: HER2 % Inhibition at 2 μg/mL) came to 63%. In addition, the “Inhibition of Cancer Cell Growth in vitro IC50, HER2-3T3” value in experiment [4] was 0.04 µg/mL and 0.03 µg/mL. In experiment [5], the “Inhibition of Cancer Cell Growth in vitro IC50, A431” value is 0.37 µg/mL and 0.28 µg/mL. Also, the “Inhibition of Cancer Cell Growth in vitro IC50, 3T3” value in experiment [6] is 0.7 µg/mL and 0.57 µg/mL.

As usually defined, the IC50 is the point on the concentration scale where inhibition reaches its midpoint.
